In patent US9296760B2, “Antibacterial compounds” (JANSSEN SCIENCES IRELAND UC, priority 2012, dated 2016):
Converted amounts (≈) assume the structure as drawn.

How the values were obtained:
[1] = system: S. aureus; experiment: Antibacterial susceptibility testing, IC90 determination with 10% human serum; assay type: cell-based, Staphylococcus aureus; details: S. aureus with human serum at final concentration of 10%; for IC90: Staphylococcus aureus, read-out: STA + 10% HS (361.169) IC90
Protocol: (§1) Antibacterial Susceptibility Testing: IC90 Determination MIC assays were performed by the broth microdilution method in a 96-well format (flat-bottom microtitre plates) with a final volume of 0.1 ml Mueller Hinton broth containing two-fold serial dilutions of compounds and inoculated with 5×10^5 CFU/ml of bacteria (standard inoculum size according to CLSI guidelines). Inhibitors are typically varied over the range of 63 to 0.49 μM. The final DMSO concentration in the assay was 1.25% (maximum tolerable DMSO concentration=6%). In the assays where the effect of human serum on the activity of the compounds against S. aureus was tested, human serum was added at a final concentration of 10%. The plates were incubated at 35° C. for 16-20 hours. At the end of incubation the bacterial growth was quantified fluorometrically. For this, resazurin was added to all wells and the plates were re-incubated. The incubation time is dependent on the type of bacteria. A change in color from blue to pink indicated the growth of bacteria. The fluorescence was read in computer-controlled fluorometer (Fluoroskan Ascent FL, Labsystems) at an excitation wavelength 540 nm and an emission wavelength of 590 nm. The % growth inhibition achieved by the compounds was calculated according to standard methods. The IC90 (expressed in μg/ml) was defined as the 90% inhibitory concentration for bacterial growth. A panel of reference compounds were simultaneously tested for QC approval. The results are depicted in the table(s) below (STA+10% HS).

[2] = biological target: T1, S. aureus ATCC 29213 FabI (Staphylococcus aureus, UniProt Q6GI75); experiment: Staphylococcus aureus FabI enzyme inhibition assay; assay type: biochemical; details: NADH consumption, 30 minutes, read-out: FabI (300.235) IC50 (converted)
T1 sequence (Q6GI75 1-256): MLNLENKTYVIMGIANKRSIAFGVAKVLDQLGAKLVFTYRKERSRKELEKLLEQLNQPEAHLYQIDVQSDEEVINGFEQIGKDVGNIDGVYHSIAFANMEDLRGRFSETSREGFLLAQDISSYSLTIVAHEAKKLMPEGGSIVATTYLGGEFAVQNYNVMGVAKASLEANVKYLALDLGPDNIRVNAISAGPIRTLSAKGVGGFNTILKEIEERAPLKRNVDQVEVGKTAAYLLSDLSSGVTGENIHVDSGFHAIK
Protocol: Y.1 FabI Enzyme Inhibition: Staphylococcus aureus FabI Enzyme Inhibition Assay
FabI enzyme inhibition assays were carried out in half-area, 384-well microtitre plates. […] The reaction mixtures were incubated for 30 minutes at room temperature and the reaction was stopped by adding 200 mM Tris buffer (pH 9.0) to create a pH-shift. The consumption of NADH was monitored by measuring the change in absorbance at […]. By comparing sample readings to those of negative (absence of compound) and positive (absence of enzyme) controls, the percent inhibition of enzymatic activity of the compounds was determined A best-fit curve is fitted by a minimum of squares method. From this an IC50-value (expressed in μg/ml), resulting in 50% inhibition of enzymatic activity, was obtained.

[3] = system: Human HelaM cells; experiment: Cytotoxicity MTT assay; assay type: cell-based; details: 72 hours
Protocol: (§2) Cytotoxicity of the compounds was evaluated using the MTT assay. Human HelaM cells grown in 96-well plates were exposed to serial dilutions of the tested compounds (final volume of 0.2 ml) and incubated for 72 hours at 37° C. and 5% CO2 Inhibitors are typically varied over the range of 25 to 0.8 μM. The final DMSO concentration in the assay is 0.5%. MTT (3-(4,5-Dimethylthiazol-2-yl)-2,5-diphenyltetrazolium bromide, a tetrazole) was added and reduced to purple formazan only in living cells. Solubilization of the formazan crystals was achieved by adding 100 μl 2-propanol. Cell viability was determined by measuring the absorbance of the reduced formazan, giving a purple color, at 540 nm and 690 nm. The absorbance measured at 690 nm was automatically subtracted from the absorbance at 540 nm, to eliminate the effects of non-specific absorption. The percent cytotoxicity achieved by the compounds was calculated according to standard methods. Cytotoxicity is reported as CC50, the concentration that causes a 50% reduction in cell viability.
(§3) The results are depicted in the table(s) below (HELAM).

[4] = system: Staphylococcus aureus ATCC 29213; experiment: Antibacterial susceptibility testing, IC90 determination (broth microdilution, resazurin); assay type: cell-based; details: 90% inhibitory concentration for bacterial growth; for STA (361.159) IC90: S. aureus ATCC 29213; for IC90: Staphylococcus aureus, ATCC29213, S. aureus ATCC 29213, read-out: STA (361.159) IC90
Protocol: Y.2 In Vitro Method for Testing Compounds for Antibacterial Activity Against Various Bacterial Strains
Preparation of Bacterial Suspensions for Susceptibility Testing
The following bacteria were used: Staphylococcus aureus ATCC 29213, methicillin-resistant Staphylococcus aureus (MRSA) ATCC 700788 and Escherichia coli ATCC 35218. The bacteria used in this study were grown overnight in flasks containing 100 ml Mueller-Hinton broth (Difco cat. nr. 0757-17) in sterile de-ionized water, with shaking, at 37° C. Stocks were store at −70° C. until use.
Bacteria were incubated on a tryptic soy agar plate containing 5% sheep blood (Becton Dickinson cat. nr. 254053) for 18-24 hours at 35° C. in aerobic conditions (first passage). For the second passage, fresh Mueller-Hinton broth is inoculated with 5-10 colonies and grown overnight at 35° C. until turbidity (reaching log-phase) in aerobic conditions is reached. The bacterial suspension is then adjusted to 0.5 McFarland density and further diluted 1:100 in Mueller Hinton broth medium. This is used as inoculum.
The result(s) are depicted the table below (for STA ATCC 29213).
Antibacterial Susceptibility Testing: IC90 Determination
as §1, with “MIC” for “Antibacterial Susceptibility Testing: IC90 Determination MIC”, “approval.” for “approval. The results are depicted in the table(s) below (STA+10% HS).”

[5] = Cytotoxicity MTT assay; assay type: cell-based, Human; details: human, HelaM cells, read-out: HELAM (222.125) CC50
Protocol: as §2, §3

Row | Compound | STA + 10% HS (361.169) IC90 [1] [µg/mL] | IC50 [2] [nM] | HELAM (222.125) CC50 [3] [µg/mL] | STA (361.159) IC90 [4] [µg/mL] | IC90 [1] [µg/mL] | melting point [°C] | IC90 [4] [µg/mL] | CC50 at 72 h [5] [µg/mL]
1 | O=C1CNCc2cc(/C=C/C(=O)N3CCC=C(c4ccccc4)CC3)cnc2N1 [compound 36] | 0.45 | 747 | >19.47 | 0.46 |  |  |  | 
2 | CN1CC(=O)Nc2ncc(/C=C/C(=O)N3CCC=C(c4ccccc4)CC3)cc2C1 [compound 40] | 0.60 | 721 | 24.25 | 0.53 |  |  |  | 
3 | CN1CC(=O)Nc2ncc(/C=C/C(=O)N3CCC=C(c4ccccc4)CC3)cc2C1 [compound 38] |  | 820 | >10.11 |  | 0.46 | 198.79 | 0.5 (≈ 1.24 µM) | 
4 | CC(=O)Nc1ccc(/C=C/C(=O)N2CC=C(c3ccccc3)CCC2)cn1 [compound 12] |  | 609 |  |  | 1.9 | 188 | 1.3 (≈ 3.6 µM) | > 9.08
